Key:
[1] = Solubility test in hexane (Table 1); assay type: physicochemical
[2] = Solubility of the isolated product in organic solvents, as noted in the synthesis examples; assay type: physicochemical
[3] = Catalytic activity test: gel time in polymerizing dicyclopentadiene under RIM conditions; details: 4°C temperature rise from the initial temperature of 40°C; A and B components mixed in adiabatic chamber; Component B 0.66 wt. percent polyoxometalate catalyst
Experimental: The ligated polyoxomolybdate produced in Examples 1-4 were tested for their activity in polymerizing dicyclopentadiene under conditions of a RIM procedure.
Reaction injection molding components were prepared with the following recipes: Component A contained 88.2 wt. percent dicyclopentadiene/7.17 wt. percent cyclopentadiene trimer/3.52 wt. percent butadiene elastomer/0.5 wt. percent diethylaluminumchloride/0.25 wt. percent 2,4-dimethyl-3-pentanol/0.09 wt. percent n-propyl alcohol/0.18 wt. percent silicon tetrachloride.
Component B contained 88.63 wt. percent dicyclopentadiene/7.19 wt. percent cyclopentadiene trimer 3.52 wt. percent butadiene elastomer/0.66 wt. percent polyoxometalate catalyst.
The A and B components were reactivity tested using two pistons and a static mixer. The A and B components were first drawn into their respective piston of the reactivity tester. The components were then heated to 40°C inside the pistons. Next, the contents of the A and B component pistons of the reactivity tester were emptied through a static mixer into a disposable adiabatic chamber.
The temperature increase during the polymerization in the adiabatic chamber was monitored. The gel time is defined as a 4°C temperature rise from the initial temperature of 40°C.

Row | Substance | soluble in cyclohexane [2] | soluble in hexane [2] | soluble in dicyclopentadiene [2] | also measured
1 | [(C12H25)3NH]4{(C4H9P)2Mo5O21} [Example 17] | readily soluble |  |  | Hexane soluble ([1]; result in words): soluble; soluble in hot hexane [2]: readily soluble
2 | [(C12H25)3NH]4{(CH3)3CP)2Mo5O21} [Example 8] |  |  |  | Hexane soluble ([1]; result in words): soluble; soluble in cyclohexane/hexane mixture ([2]; cyclohexane/hexane mixture): soluble
3 | [(C12H25)3NH]2{[(OOC)CH2CH(O)(COO)]2Mo4O12} [Example 30] | soluble | soluble |  | 
4 | [(C12H25)3NH]4{(C6H5P)2Mo5O21} [Example 2] |  | readily soluble | readily soluble | Hexane soluble ([1]; numeric bound): > 99%; gel time [3]: 3.7 min
5 | [(C12H25)3NH]4{(C6H5P)2Mo5O21} [Example 19] |  | readily soluble | readily soluble | 
6 | [(C12H25)3NH]4{(C6H5P)2W5O21} [Example 9] |  | soluble | soluble | Hexane soluble ([1]; numeric bound): > 99%
7 | [(C12H25)3NH]2{[Br2C6H2(O)(COO)]2MoO2} [Example 29] | soluble | soluble |  | 
8 | [(C12H25)3NH]2{[C10H6(O)(COO)]2Mo2O5} [Example 27] | soluble | soluble |  | 
9 | [(C12H25)3NH]2{[CH3C6H3(O)(COO)]2Mo2O5} [Example 28] | soluble | soluble |  | 
10 | [(C12H25)3NH]4{(C6H5P)2Mo5O21} [Example 10] |  | readily soluble | readily soluble | 
11 | [(C12H25)3NH]4{(C6H5P)2Mo5O21} [Example 35] | soluble | soluble |  | 
12 | [(C12H25)3NH]4{(C6H5P)2Mo5O21} [Example 33] | soluble | soluble |  | 
13 | [(C12H25)3NH]2{[C6H4(O)(COO)]2Mo2O5} [Example 24] | soluble | soluble |  | 
14 | [(C12H25)3NH]2{[CH3CH(O)(COO)]2Mo2O5} [Example 23] | soluble | soluble |  | 
15 | [(C8H17)3NCH3]4{(C6H5P)2Mo5O21} [Example 5] | soluble |  | soluble | Hexane soluble ([1]; numeric bound): < 5%
16 | [(C12H25)3NH]4{(C6H5P)2Mo5O21} [Example 1] |  |  |  | gel time [3]: 4.4 min
17 | [(C12H25)3NH]2{(C6H4O2)2MoO2} [Example 32] | soluble |  |  | 
18 | [(C12H25)3NH]4{(C6H5OP)2Mo5O21} [Example 12] |  | readily soluble | readily soluble | Hexane soluble ([1]; numeric bound): > 99%
19 | [(C12H25)3NH4{(C6H5P)2Mo5O21} [Example 34] | soluble | soluble |  | 
20 | [(C12H25)3NH]2{(H3NC6H4P)2Mo5O21} [Example 16] | soluble | soluble |  | Hexane soluble ([1]; result in words): soluble
21 | [C12H25NH]4{[HOC(O)CH2CH2P]2Mo5O21]} [Example 14] |  |  |  | Hexane soluble ([1]; result in words): soluble

More lines, main results first:

Row | soluble in cyclohexane [2] | soluble in hexane [2] | soluble in dicyclopentadiene [2] | Substance | also measured
22 |  | readily soluble | readily soluble | [(i-C10H21)3NH]4{(C6H5P)2Mo3O21} [Example 3] | Hexane soluble ([1]; numeric bound): > 99%; gel time [3]: 3.4 min
23 | soluble | soluble |  | [(C12H25)3NH]4{(HOP)2Mo5O21} [Example 38] | 
24 | readily soluble |  |  | [(i-C8H17)3NH]4{(C6H5P)2Mo5O21} [Example 4] | Hexane soluble ([1]; numeric bound): < 5%; gel time [3]: 2.5 min; soluble in hot hexane [2]: readily soluble
25 |  | readily soluble | readily soluble | [(C12H25)3NH]4{[(HOCH2)2CHOP)]2Mo5O21} [Example 13] | Hexane soluble ([1]; numeric bound): > 99%
26 | soluble | soluble | soluble | [(C18H37)0.65C16H33)0.35(C14H29)0.05NH]4{(C6H5P)2Mo5O21} [Example 7] | Hexane soluble ([1]; numeric bound): > 99%
27 | soluble | soluble |  | [(C12H25)3NH]4{[C6H4(O)(COO)]2Mo4O12} [Example 26] | 
28 | soluble |  |  | [(C12H25)3NH]4{(CH3P)2Mo5O21} [Example 15] | Hexane soluble ([1]; result in words): soluble; soluble in hot hexane [2]: soluble
29 | soluble |  |  | [(C12H25)3NH]4{(HP)2Mo5O21} [Example 20] | 
30 | soluble | soluble |  | [(C12H25)3NH]4{[CH3CH(O)(COO)]2Mo4O12} [Example 22] | 
